Data on one molecule can be found in PMC9388906, “Dual inhibition of the Echinococcus multilocularis energy metabolism” (Frontiers in Veterinary Science, 2022).

Experiment [1] relates to E. multilocularis metacestodes. Briefly: Transmission electron microscopy of treated metacestodes. In kind it is cell-based, Echinococcus multilocularis. As to conditions: 5 days. The method, then:
E. multilocularis metacestodes treated with ELQ-400 (0.2, 1 and 2 μM, 5 days of incubation) under normoxic (37°C, 21% O2, 5% CO2, humid atmosphere) and anaerobic conditions (37°C, 80% N2, 10% CO2, and 10% H2, humid atmosphere) were processed for TEM as previously described ([17]). Metacestodes were washed in 100 mM sodium cacodylate buffer (pH 7.3), and were fixed in 2% glutaraldehyde in cacodylate buffer overnight at 4°C. Following several washes in cacodylate buffer, metacestodes were post-fixed in 2% osmium tetroxide in cacodylate buffer for 3–4 h, washed in water, and samples were treated with Uranyless™ solution (EMS, Hatfield, PA, USA) for 20 min, followed by several washes in distilled water. Specimens were dehydrated in a graded series of ethanol and were embedded in EPON-812 epoxy resin. Polymerization of the resin was carried out at 60°C for 24 h. Ultrathin sections were cut on a Reichert and Jung (Vienna) microtome, and were allowed to settle onto 400 mesh formvar carbon coated grids (Plano GmbH, Wetzlar, Germany). Specimens were contrasted with Uranyless and lead citrate, and were viewed on a FEI Morgagni Transmission Electron Microscope operating at 80 kV.

For experiment [2], the system named is mitochondrial bc1 complex of E. multilocularis GL cells. Briefly: Seahorse oxygen consumption rate assay. It counts as cell-based, Echinococcus multilocularis. As to conditions: 1 μM; succinate as initial electron donor; restored by ascorbate/TMPD, not by succinate or glycerol 3-phosphate. The method, then: To measure effects of ELQ-400 on the oxygen consumption rate (OCR), Seahorse assay was conducted according to the method established by Rufener et al. ([17]) and according to the manual for Seahorse XFp Extracellular Flux Analyzer (Agilent Technologies, Bucher Biotec, Basel, Switzerland). E. multilocularis GL cells were isolated and prepared the day before. Cells were centrifuged and resuspended in Mitochondrial Assay Solution (MAS) solution (220 mM mannitol, 70 mM sucrose, 10 mM KH2PO4, 5 mM MgCl2, 2 mM HEPES, and 1 mM EGTA pH 7.2). This cell suspension was centrifuged again and the pellet was resuspended in assay-buffer (MAS, 10 mM succinate, 2 μM rotenone, 4 mM ADP, and 3.6 nM PMP). 100 units of GL cells were distributed to each well of a Seahorse XFp miniplate (Agilent Technologies) pre-coated with CellTak according to the instruction manual (Fisher Scientific, Schwerte, Germany). Two wells were used as blanks with assay buffer without cells. ELQ-400 (1 μM) was diluted in MAS solution and loaded to the delivery ports of the sensor cartridge of the first injection (or DMSO as a control). In the second injection, succinate (10 mM), glycerol 3-phosphate (10 mM), or ascorbate (20 mM) with TMPD (0.6 mM) was added. […] Each drug setup was tested in triplicates and the read-out and analysis was done using the software Wave (Agilent Technologies, Bucher Biotec, Basel, Switzerland). […]

`Cc1[nH]c2cc(F)cc(F)c2c(=O)c1-c1ccc(Oc2ccc(OC(F)(F)F)cc2)cc1` [ELQ-400]: the “Ultrastructural effects on metacestodes (TEM)” value in experiment [1] (0.2 μM, normoxic (21% O2)) is “did not show obvious ultrastructural alterations”; in experiment [1] (2 μM, normoxic (21% O2)), “partial separation of the GL and the LL”; in experiment [1] (anaerobic conditions, compared with damage at 1 and 2 μM under normoxic conditions) it was “did not exhibit such alterations”. The “Ultrastructural effects on metacestodes (TEM): overall structural organization, especially of the GL” value in experiment [1] (1 μM, normoxic (21% O2)) is “partially compromised”. Also, the “Oxygen consumption rate (OCR) of GL cells” value in experiment [2] is reported as “immediate reduction of the OCR”.
